Measured values from article PMC6315362, “Cytotoxic Potential of the Novel Horseshoe Crab Peptide Polyphemusin III” (Marine Drugs, 2018).
Where no end group is shown, it is not given here.

How the values were obtained:
HL-60 cells = experiment: Annexin V-FITC/propidium iodide double staining and flow cytometry; format: cell-based, human; conditions: HL-60, 4 h of incubation, 50 μM Z-VAD-FMK
Source text: To further investigate the effect of PM III on human cells, we performed annexin V-FITC/propidium iodide double staining with subsequent flow cytometric analysis. Annexin V-FITC binds to phosphatidylserine, which is exposed on the outer leaflet of the cellular plasma membrane at the initial stages of apoptosis, whereas propidium iodide (PI) preferentially stains nuclei of dead cells. Therefore, a combination of annexin V-FITC and PI assays allows differentiation between early apoptotic and late apoptotic/necrotic cell populations. PM III was used at two final concentrations of 2.5 and 5 μM. In order to elucidate the predominant mechanism of the PM III action, we applied a widely used caspase inhibitor, Z-VAD-FMK [23].
Cell death analysis with fluorescein isothiocyanate conjugated annexin V (annexin V-FITC)/propidium iodide double staining and dead cells counting with flow cytometry were performed 4 h after addition of polyphemusin III up to a final concentration of 2.5 or 5 μM. The Annexin V-FITC Apoptosis Detection Kit (BD Biosciences, Franklin Lakes, NJ, USA) was used according to the manufacturer’s protocol on a NovoCyte flow cytometer (ACEA Biosciences, San Diego, CA, USA). Each experiment was performed in triplicate. The apoptosis inducer camptothecin (Sigma-Aldrich, St. Louis, MO, USA) and the general caspase inhibitor, Z-VAD-FMK (BD Biosciences, Franklin Lakes, NJ, USA), were used. All flow cytometry experiments were performed twice.

[1] = tested on: Gram-negative and Gram-positive bacteria; conditions: synthetic PM I against Gram-negative and Gram-positive bacteria; cited from earlier work
Description: Our experimental data for the obtained recombinant PM I are in line with those obtained earlier for synthetic PM I against Gram-negative and Gram-positive bacteria (with reported MICs not exceeding 1 μM).

Molecule	influence of the caspase inhibitor Z-VAD-FMK on the effect of the substance (annexin V-FITC/PI staining) (HL-60 cells)	MICs [1] [µM]
CC[C@@]1(O)C(=O)OCc2c1cc1n(c2=O)Cc2cc3ccccc3nc2-1 [campthotecin, camptothecin]	totally abrogated	–
synthetic PM I: synthetic polyphemusin I of earlier reports (RRWCFRVCYRGFCYRKCR; ends and bridges not checked; cysteine pairing not given here; UniProt P14215 1-18, looked up)	–	≤ 1
